# “Also recorded” adds a separate entry of the source.
# How the values were obtained:
# Assay type in all cases: in vivo
# [1] = tested on: mice with 5-FU-induced diarrhea; assay: Diarrhea scoring, mice with 5-FU-induced diarrhea (CID model); settings: 20 mg/kg i.g.; 5-FU model
# Description: Pdist-1, Lferm-1, Lsali-1, Eaviu-1, and Bbifi-1 were each inoculated into the corresponding bacterial powder preparation medium, and then anaerobically cultured at 37° C. and 90 rpm for 16-24 h to obtain a primary seed solution. Subsequently, the five primary seed solutions were each transferred to the corresponding bacterial powder preparation medium, and then anaerobically cultured at 37° C. and 90 rpm for 10-15 h to obtain a secondary seed solution. The five secondary seed solutions were each pumped into a fermenter containing the corresponding bacterial powder preparation medium using a peristaltic pump, and then subjected to fermentation culture. After the fermentation was stopped, the bacterial cells of each strain were collected by centrifugation. Each corresponding lyoprotectant was added according to a weight ratio of the bacterial sludge to the lyoprotectant of 1:1 to 1:2, and the mixture was well mixed to emulsify the bacterial sludge. Each bacterial sludge was lyophilized and pulverized to obtain a bacterial powder. An appropriate amount of each pulverized bacterial powder was taken for determination of viable count. The bacterial powders of the strains were mixed at equal CFU concentrations based on the viable counts to obtain a bacterial composition powder. Finally, the bacterial composition powder was prepared into a bacterial suspension using normal saline for an animal experiment. The bacterial suspension was diluted with normal saline to obtain bacterial compositions with different bacterial doses. […]
# During the experimental period, the body weight of the animals was measured daily, and general observations were recorded (the observation items included but were not limited to the animals' appearance signs, behaviors and activities, respiration, glandular secretion, fecal condition, etc.). The diarrhea condition of each animal after modeling was specifically observed and then recorded and scored. […]
# [2] = tested on: IL-1β; assay: qPCR of colon tissue, 5-FU-induced diarrhea mice; settings: 20 mg/kg i.g.; 5-FU model
# Source text: (§1) (1) Experimental design: Ninety-six SPF-grade male Balb/c mice weighing 22-24 g (purchased from Beijing Vital River Laboratory Animal Technology Co., Ltd.) were housed in an SPF-grade animal room. Based on the initial body weight, the mice were randomly divided into 8 groups of 12: a normal control group, a model control group, a positive control loperamide group, a positive control Zhengchangsheng group, a high-dose bacterial composition group, a medium-high-dose bacterial composition group, a medium-dose bacterial composition group, and a low-dose bacterial composition group. The aforementioned 8 groups were intragastrically given normal saline (0.2 mL/mouse/day), lyoprotectant (0.2 mL/mouse/day), loperamide (purchased from Henan Zhongjie Pharmaceutical Co., Ltd., 20 mg/kg body weight/mouse/day), Zhengchangsheng (containing viable Bacillus licheniformis, Northeast Pharmaceutical Group Co., Ltd., 2×10^8 CFU/mouse/day), high-dose bacterial composition (1×10^9 CFU/mouse/day), medium-high-dose bacterial composition (1×10^8 CFU/mouse/day), medium-dose bacterial composition (1×10^7 CFU/mouse/day), and low-dose bacterial composition (1×10^6 CFU/mouse/day), respectively. The overall experimental period was 9 days, designated as D1 to D9. Intragastric administration was performed for 8 consecutive days from D1 to D8. Modeling was started on D3. The mice in the normal control group received abdominal injection of normal saline at 0.2 mL/mouse, while the mice in all other groups were intraperitoneally injected with 5-FU (5-fluorouracil, purchased from Tianjin Pharma Heping (Tianjin) Pharmaceutical Co., Ltd.; specification: 10 mL/vial, 0.25 g/10 mL) at 30 mg/kg body weight for 4 consecutive days to induce a CID mouse model. The mice were dissected on D9.
# (§2) During the experimental period, the body weight of the animals was measured daily, and general observations were recorded (the observation items included but were not limited to the animals' appearance signs, behaviors and activities, respiration, glandular secretion, fecal condition, etc.). The diarrhea condition of each animal after modeling was specifically observed and then recorded and scored. After euthanasia was performed at the end of the experiment, middle colon tissue samples were collected for qPCR detection of genes related to inflammatory factors (TNF-α and IL-1β) and tight junction proteins (ZO-1 and Occludin).
# (§3) (3) qPCR detection: The total RNA was extracted from colon tissues of the mice in each group using the Trizol method and then reverse-transcribed into cDNA. The cDNA was stored at −20° C. for later use. The relative mRNA transcriptional levels of the genes encoding the pro-inflammatory factors IL-1β and TNF-α, as well as the tight junction proteins ZO-1 and Occludin-1, in the colon of the mice in each group were detected using the qRT-PCR method (the primer sequences are shown in Table 7, and the internal reference gene was β-actin). Reaction program: 1) 95° C. for 3 min; 2) 95° C. for 10 s, 60° C. for 30 s, 95° C. for 15 s, and 60° C. for 1 min, 40 cycles in total; and 3) 95° C. for 10 s. Data analysis was performed using the 2^−ΔΔCT method.
# [3] = tested on: Occludin; assay: qPCR of colon tissue, 5-FU-induced diarrhea mice; settings: 20 mg/kg i.g.; 5-FU model
# Source text: as §1, §2, §3
# [4] = tested on: TNF-α; assay: qPCR of colon tissue, 5-FU-induced diarrhea mice; settings: 20 mg/kg i.g., 5-FU model
# Source text: as §1, §2, §3
# [5] = tested on: ZO-1; assay: qPCR of colon tissue, 5-FU-induced diarrhea mice; settings: 20 mg/kg i.g.; 5-FU model
# Source text: as §1, §2, §3
# [6] = tested on: mice with radiation enteritis; assay: Diarrhea scoring, radiation enteritis model mice; settings: 15 mg/kg i.g.
# [7] = Body weight, radiation enteritis model mice; settings: 15 mg/kg i.g.
# Description: (§4) (1) Experimental design: Eighty male C57BL/6 mice (purchased from Chengdu GemPharmatech Co., Ltd.) were housed in an SPF-grade animal room. Based on the body weight, the aforementioned mice were randomly divided into 8 groups of 10: a normal control group (administration regimen: normal saline at 0.2 mL/mouse/day), a model control group (administration regimen: lyoprotectant at 0.2 mL/mouse/day), a loperamide group (administration regimen: loperamide at 15 mg/kg body weight), an LGG (Lactobacillus rhamnosus GG, Shaanxi Zelang Biotechnology Co., Ltd.) group (administration regimen: LGG at 1×10^9 CFU/mouse/day), a high-dose bacterial composition group (administration regimen: bacterial composition at 1×10^9 CFU/mouse/day), a medium-high-dose bacterial composition group (administration regimen: bacterial composition at 1×10^8 CFU/mouse/day), a medium-dose bacterial composition group (administration regimen: bacterial composition at 1×10^7 CFU/mouse/day), and a low-dose bacterial composition group (administration regimen: bacterial composition at 1×10^6 CFU/mouse/day). Except for the normal control group, all other groups of mice were subjected to a single whole abdominal X-ray irradiation at a dose of 11.5 Gy. The overall experimental period was 18 days, designated as D1 to D18. Each group was subjected to intragastric administration once daily for 17 consecutive days. Seven days after administration, irradiation was performed on D8, and dissection was conducted on D18.
# (§5) During the experimental period, the body weight of the animals was measured daily, and general observations were recorded (the observation items included but were not limited to the animals' appearance signs, behaviors and activities, respiration, glandular secretion, fecal condition, etc.). The diarrhea condition of each animal after irradiation modeling was specifically observed and then recorded and scored. At the end of the experiment, the animals were euthanized, and the colorectal parts were taken, directly fixed in a 10% formaldehyde solution, stained with HE, and then subjected to pathological examination.
# [8] = tested on: mice with radiation enteritis; assay: Colorectal pathological examination (HE), radiation enteritis model mice; settings: 15 mg/kg i.g.
# Description: as §4, §5
# (3) Pathological examination of intestinal tissues: The colorectal parts were directly fixed in a 10% formaldehyde solution, stained with HE, and then subjected to pathological examination.
# [9] = tested on: 5-FU-induced tumor-bearing CID mice; assay: Diarrhea scoring, 5-FU-induced tumor-bearing CID mice; settings: 20 mg/kg i.g., tumor-bearing 5-FU model
# Source text: The bacterial composition used in Examples 10-12 were obtained by mixing five strains at equal CFU concentrations according to the method in Example 9. The CFU of the bacterial composition referred to in Examples 10-12 was the total CFU of the five strains.
# (§6) Experimental design: Fifty male BALB/c mice (purchased from Chengdu GemPharmatech Co., Ltd.) were housed in an SPF-grade animal room. CT26 cells (purchased from Beijing BeNa Culture Collection) were subcutaneously inoculated into the right flank of each mouse at a dose of 5×10^6 cells/mouse in a volume of 0.1 mL. When the tumor volume reached about 100-150 mm^3, 42 mice were selected for the subsequent experiment. Based on the tumor volume, the aforementioned 42 mice were randomly divided into 7 groups of 6. The aforementioned 7 groups were as follows: a normal control group (administration regimen: lyoprotectant at 0.2 mL/mouse/day), a model control group (administration regimen: lyoprotectant at 0.2 mL/mouse/day), a positive control loperamide group (administration regimen: loperamide at 20 mg/kg body weight), a Zhengchangsheng group (administration regimen: Bacillus licheniformis at 2×10^8 CFU/mouse/day), a high-dose bacterial composition group (administration regimen: bacterial composition at 1×10^9 CFU/mouse/day), a medium-dose bacterial composition group (administration regimen: bacterial composition at 1×10^8 CFU/mouse/day), and a low-dose bacterial composition group (administration regimen: bacterial composition at 1×10^7 CFU/mouse/day). The day of grouping was designated as day 1 (D1) of the experiment, and intragastric administration was started on day 1 (D1) and performed once daily (QD) for 9 consecutive days. On days 3, 4, 5, and 6 of administration, the normal control group was intraperitoneally injected with normal saline at 0.2 mL/mouse, while the mice in all other groups were intraperitoneally injected with 5-FU (50 mg/kg body weight, 10 mL/kg body weight) for modeling. Compared with the normal control group, the tumor volumes of mice in each group were reduced after 5-FU injection.
# [10] = tested on: 5-FU-induced tumor-bearing CID mice; assay: Blood routine examination, 5-FU-induced tumor-bearing mouse model; settings: 20 mg/kg i.g.; tumor-bearing 5-FU model
# Description: as §6
# The specific administration regimens are detailed in Table 18. After the end of the experiment, whole blood samples were collected from animals in each group through enucleation, and then subjected to blood routine examination using a five-classification blood cell analyzer for animals (Shenzhen Dymind Biotechnology Co., Ltd.).
structure (smiles),measurement,setting,value
"CN(C)C(=O)C(CCN1CCC(O)(c2ccc(Cl)cc2)CC1)(c1ccccc1)c1ccccc1 [Loperamide, loperamide]",D8 diarrhea score,[1],0.08 ± 0.08
same,D9 diarrhea score,[1],0.17 ± 0.11
same,Total diarrhea score,[1],0.25 ± 0.18
same,IL-1β relative mRNA transcription level in colon tissue,[2],1.26
same,Occludin relative mRNA transcription level in colon tissue,[3],0.90
same,TNF-a relative mRNA transcription level in colon tissue,[4],1.05
same,TNF-a relative mRNA transcription level in colon tissue,[4]; listed as loperamide,significantly reduce
same,ZO-1 relative mRNA transcription level in colon tissue,[5],0.80
same,D17 total diarrhea score,[6],9.80 ± 0.59
same,D17 total diarrhea score,[6]; listed as loperamide,significant improvements
same,D1 body weight,[7],23.11 ± 0.20 g
same,D14 body weight,[7],19.79 ± 0.14 g
same,D14 body weight change rate,[7],−14.37 ± −10.00%
same,D17 body weight,[7],20.92 ± 0.16 g
same,D17 body weight change rate,[7],−9.48 ± −6.38%
same,D17 body weight,[7]; listed as loperamide,a trend toward restoring
same,Goblet cell (colorectal pathological score),[8],1.60 ± 0.08
same,Inflammatory infiltration (colorectal pathological score),[8],2.00 ± 0.00
same,Mucosal damage (colorectal pathological score),[8],1.60 ± 0.08
same,Pathological score (colorectal),[8],5.20 ± 0.15
same,Pathological score (colorectal),[8]; listed as loperamide,an improvement trend
same,D1-D9 total diarrhea score,[9],4.67 ± 0.56
same,D6 diarrhea score,[9],0.33 ± 0.21
same,D7 diarrhea score,[9],1.00 ± 0.00
same,D8 diarrhea score,[9],1.33 ± 0.21
same,D9 diarrhea score,[9],2.00 ± 0.37
same,D1-D9 total diarrhea score,[9]; listed as loperamide,a significant reduction; also recorded: significantly ameliorate diarrhea
same,D8 diarrhea score,[9]; listed as loperamide,a significant reduction
same,Hematocrit,[10],43.17 ± 0.99%
same,Lymphocyte count,[10],1.18 ± 0.29 10^9/L
same,Platelet count,[10],216.67 ± 21.53 10^9/L
same,Red blood cell count,[10],9.39 ± 0.23 10^12/L
same,White blood cell count,[10],1.24 ± 0.30 10^9/L
